From patent US20250195483A1, “SPIRO PIPERIDINE DERIVATIVES AS INHIBITORS OF APOL1 AND METHODS OF USING SAME” (Vertex Pharmaceuticals Incorporated, priority 2022, published 2025) come the findings set out here.

Structures are written as SMILES. A value given as a limit tells only on which side of the number the result lay.

The target in this experiment is T1, APOL1 (Homo sapiens, UniProt O14791).
T1 sequence (O14791 1-398): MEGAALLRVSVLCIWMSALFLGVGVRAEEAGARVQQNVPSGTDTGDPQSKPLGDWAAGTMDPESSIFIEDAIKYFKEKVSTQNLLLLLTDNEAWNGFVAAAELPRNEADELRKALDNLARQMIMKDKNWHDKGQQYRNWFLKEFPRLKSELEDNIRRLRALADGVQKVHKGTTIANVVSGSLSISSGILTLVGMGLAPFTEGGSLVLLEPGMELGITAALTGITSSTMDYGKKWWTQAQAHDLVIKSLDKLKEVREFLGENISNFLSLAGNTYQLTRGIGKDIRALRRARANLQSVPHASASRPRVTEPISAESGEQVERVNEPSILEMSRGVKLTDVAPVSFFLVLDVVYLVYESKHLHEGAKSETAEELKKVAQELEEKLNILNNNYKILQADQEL
The experiment is described as follows: MultiTox-Fluor Multiplex Cytotoxicity Assay, tet-inducible APOL1 T-REx-HEK293 cells (G0, G1 or G2 clone not specified for Table 20). It counts as cell-based. The conditions noted are these: tet-induced, 24 hours with compound, ratio of dead to live cells, read-out: IP50 (i.e., IC50 for cell proliferation). An outline of the steps: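 HEK293 T-REx cells with tet-inducible APOL1 G0, G1 or G2 clone, 23,400/well, treated with tetracycline plus compound (top 10 μM, 10-point 3-fold, duplicate) for 24 h at 37° C. MultiTox-Fluor dead/live fluorescence ratio, normalized to no-tet (100% viability) and 50 ng/mL tet (0% viability) controls, then curve-fitted.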
As to `COCn1cc(CN2CC[C@]3(C[C@@H]2C)OCCc2ccc(Cl)cc23)nn1` [Compound 155], the IC50 fell in the range of 50 to 500 nM.

As for `C[C@H]1C[C@@]2(CCN1Cc1cn(CC(O)C(C)(C)O)nn1)OCCc1ccc(Cl)cc12` (some centres unmarked) [Compound 156], the IC50 was at most 50 nM.

For `C[C@H]1C[C@@]2(CCN1Cc1cn(CC(O)C(C)(C)O)nn1)OCCc1ccc(Cl)cc12` (some centres unmarked) [Compound 157], the IC50 was at most 50 nM.

On to `C[C@H]1C[C@@]2(CCN1Cc1cn(CC(C)(C)CS(N)(=O)=O)nn1)OCCc1ccc(Cl)cc12` [Compound 158], for which the IC50 was at most 50 nM.

As for `Cc1ccc(NCCn2cc(CN3CC[C@]4(C[C@@H]3C)OCCc3ccc(Cl)cc34)nn2)nn1` [Compound 159], the IC50 is 50 to 500 nM.

In the case of `C[C@H]1C[C@@]2(CCN1Cc1cn(CCCc3nc(=O)[nH][nH]3)nn1)OCCc1ccc(Cl)cc12` [Compound 160], the IC50 is 50 to 500 nM.

For `CCc1nnc(Cn2cc(CN3CC[C@]4(C[C@@H]3C)OCCc3ccc(Cl)cc34)nn2)o1` [Compound 161], the IC50 is at most 50 nM.

Consider `CNc1cnc(Cn2cc(CN3CC[C@]4(C[C@@H]3C)OCCc3ccc(Cl)cc34)nn2)cn1` [Compound 162], for which the IC50 was in the range of 50 to 500 nM.

On to `C[C@H]1C[C@@]2(CCN1Cc1cn(Cc3cc(=O)[nH]c(C4CC4)n3)nn1)OCCc1ccc(Cl)cc12` [Compound 163], for which the IC50 lay within 50 to 500 nM.

Turning to `C[C@H]1C[C@@]2(CCN1Cc1cn(Cc3nc(CO)cs3)nn1)OCCc1ccc(Cl)cc12` [Compound 164], the IC50 was in the range of 50 to 500 nM.

Regarding `Cc1nc(Cn2cc(CN3CC[C@]4(C[C@@H]3C)OCCc3ccc(Cl)cc34)nn2)sc1C(N)=O` [Compound 165], the IC50 was at most 50 nM.

`C[C@H]1C[C@@]2(CCN1Cc1cn(Cc3cnn4c3C(=O)N(C)CC4)nn1)OCCc1ccc(Cl)cc12` [Compound 166]: the IC50 lay within 50 to 500 nM.

As to `C[C@H]1C[C@@]2(CCN1Cc1cn(CC(C)(C)NS(C)(=O)=O)nn1)OCCc1ccc(Cl)cc12` [Compound 167], the IC50 was at most 50 nM.

For the molecule `Cc1n[nH]c(C(F)(F)Cn2cc(CN3CC[C@]4(C[C@@H]3C)OCCc3ccc(Cl)cc34)nn2)n1` [Compound 168], the IC50 was in the range of 50 to 500 nM.

`CC(C)n1cc(Cn2cc(CN3CC[C@]4(C[C@@H]3C)OCCc3ccc(Cl)cc34)nn2)c(=O)[nH]c1=O` [Compound 169]: the IC50 is at most 50 nM.

For the molecule `Cc1nn(CCO)cc1Cn1cc(CN2CC[C@]3(C[C@@H]2C)OCCc2ccc(Cl)cc23)nn1` [Compound 170], the IC50 is at most 50 nM.

As for `C[C@H]1C[C@@]2(CCN1Cc1cn(CC(=O)NCC3(C#N)CC3)nn1)OCCc1ccc(Cl)cc12` [Compound 171], the IC50 was at most 50 nM.

As to `C[C@H]1C[C@@]2(CCN1Cc1cn(Cc3ccc(C(N)=O)o3)nn1)OCCc1ccc(Cl)cc12` [Compound 172], the IC50 is at most 50 nM.

Consider `CCNC(=O)NCCn1cc(CN2CC[C@]3(C[C@@H]2C)OCCc2ccc(Cl)cc23)nn1` [Compound 173], for which the IC50 is at most 50 nM.

In the case of `Cc1ccc(Cn2cc(CN3CC[C@]4(C[C@@H]3C)OCCc3ccc(Cl)cc34)nn2)c(=O)[nH]1` [Compound 174], the IC50 is 50 to 500 nM.

With `C[C@H]1C[C@@]2(CCN1Cc1cn(CC3(CC(N)=O)CC3)nn1)OCCc1ccc(Cl)cc12` [Compound 175], the IC50 was at most 50 nM.

Take `C[C@H]1C[C@@]2(CCN1Cc1cn(Cc3nccn(C)c3=O)nn1)OCCc1ccc(Cl)cc12` [Compound 176]: the IC50 lay in the range of 50 to 500 nM.

Turning to `C[C@H]1C[C@@]2(CCN1Cc1cn(Cc3ncc4c(n3)CCOC4)nn1)OCCc1ccc(Cl)cc12` [Compound 177], the IC50 was in the range of 50 to 500 nM.

Consider `Cc1nnc(O)c(Cn2cc(CN3CC[C@]4(C[C@@H]3C)OCCc3ccc(Cl)cc34)nn2)c1C` [Compound 178], for which the IC50 lay within 50 to 500 nM.

`C[C@H]1C[C@@]2(CCN1Cc1cn(CCCn3ccc(=O)[nH]c3=O)nn1)OCCc1ccc(Cl)cc12` [Compound 179]: the IC50 was at most 50 nM.

`Cc1cc(Cn2cc(CN3CC[C@]4(C[C@@H]3C)OCCc3ccc(Cl)cc34)nn2)cc(=O)[nH]1` [Compound 180]: the IC50 lay within 50 to 500 nM.
